Data set [1] deals with Purified antibodies specific to the RBM (anti-RBM antibodies from vaccinated serum). In kind it is binding, human.
Data set [2] relates to IgG in serum of vaccinated individuals. Put plainly: In-house peptide ELISA, IgG. In kind it is binding, human. The following applies: serum 1:25; for IgG seroreactivity (positive samples): reactivity index > 1.1. As to the method:
A panel of 31 serum samples were obtained from individuals who received a single dose of the Oxford/AstraZeneca vaccine, and 15 serum samples were collected from individuals who received four doses. Serum from healthy donors, collected before the pandemic, was provided by HEMORIO, a centralized network of blood donor facilities in Rio de Janeiro, Brazil. Serum samples were supplied without identifying information to ensure patient privacy.
An in-house ELISA was conducted using Immunolon 4 HB plates (Immunochemistry Technologies, Bloomington, MN, USA). The coating process involved overnight incubation at 4 °C, wherein each well received 500 ng of peptides in a coating buffer (50 mM carbonate–bicarbonate buffer, pH 9.6). After washing with PBS-T (phosphate-buffered saline plus 0.05% Tween 20), the plates were incubated for 1 h at 37 °C with 1% BSA (200 µL) in PBS-T to block free binding sites. Following the dilution of patient serum in PBS-T with 1% BSA (1:25), 100 µL of the diluted serum was applied to immunosorbent plates, which were then incubated at 37 °C for 1 h. Following a series of PBS-T washes, plates were treated with 100 µL of mouse anti-human IgG3 (1:1000) followed by association with antimouse peroxidase (1:15.000) or goat anti-human immunoglobulin classes IgG (1:10.000), IgM (1:10.000), and IgA (1:5000) or subclasses IgG1 (1:1000) and IgG2 (1:1000) associated with the HRP molecule, respectively (Sigma-Aldrich, St Louis, MO, USA). Between each step, the plates were incubated at 37 °C for 1 h. Following the addition of 3,3′,5,5′-tetramethylbenzidine (1-Step™ Ultra TMB-ELISA, Science Biotech Ltd., Lages, SC, Brazil) for 15 min, 0.5 M sulfuric acid was utilized to terminate the reaction. The plate was read 30 min after the Stop Solution was added. The values of empty wells that contained only peptides were deducted from the optical density of the sample.
Prism software (GraphPad version 6, San Diego, CA, USA) was utilized to analyze the data. Statistical differences were identified using the Kruskal–Wallis test and Dunn’s multiple comparisons tests. Differences were considered significant when the p-value was less than 0.05. The reactivity index (RI) was calculated by dividing the absorbance of a given protein by the threshold established by a receiver operation curve (ROC) analysis. A result greater than 1.10 was considered positive, while a result less than 0.90 was considered negative; these are represented by dot lines. Samples with a relative index (RI) value of 1.0 ± 10% were classified as gray-zone samples and deemed inconclusive.

A short description of data set [3]: Protein thermal shift assay. In kind it is physicochemical. As for the experimental part: Protein thermal shift assays were performed using a QuantStudio 3 PCR System (Applied Biosystems, Foster City, CA, USA). The experiments used a 0.2 mL MicroAmp® optical eight-strip manufactured by Applied Biosystems. Every step was executed on ice. In each measurement, duplicates or quadruplicates of the samples were analyzed. Each measurement included a negative control free of protein and a positive control obtained with Lysozyme (10 µg) and the peptide S8WT (5 µg). A carbonate–bicarbonate buffer (50 mM, pH 9.6) and a protein thermal shift dye (Applied Biosystems, Foster City, CA, USA) were used in a 4× dye concentration. The plate was sealed with MicroAmp™ Optical Adhesive Film (Applied Biosystems, Foster City, CA, USA) and incubated on ice for 15 min after all components were pipetted into the wells. An Applied Biosystems QuantStudio™ 3 Real-Time PCR System was used, utilizing a gradient rate of 0.05 °C/s and a melt curve filter setting of x2-m2 from 25 °C to 99 °C with continuous data collection. Analyses of the melting curves were conducted with the TSAR application in R version 4.2.1.

The subject of another data set is antibodies in sera. The following applies: ref A novel precision-serology assay for SARS-CoV-2 infection based on linear B-cell epitopes of Spike protein; cited from earlier work.
Where [4] appears, read: first dose Oxford/AstraZeneca, n = 30, 500 ng peptide per well.
[5] abbreviates: heterologous booster doses, n = 7.

As to GSTPCNGVEGFNCYF [S2WT], in data set [1], the “binding affinity of RBM antibodies (in words)” value is reported as “stronger”. For the same substance, the Kd in data set [1] (read-out: Kd (dissociation constant)) is 35 nM. In addition, the results for the “IgG positive samples (reactivity index > 1.1)” value in data set [2] (setting [4]) and in data set [2] (setting [5]) were 4/30 and 1/7, respectively. Moreover, the “IgG seroreactivity (positive samples)” value amounted to 13.3% in data set [2] (first dose Oxford/AstraZeneca, n = 30) and 14.3% in data set [2] (setting [5]).
For Lysozyme, the Tm was 72.7 °C in data set [3] (Lysozyme 10 µg control, carbonate–bicarbonate buffer 50 mM, pH 9.6, 25 to 99 °C, 0.05 °C/s, protein thermal shift dye); 71.7 °C in data set [3] (replicate 1 (Lysozyme_1), 10 µg, carbonate–bicarbonate buffer pH 9.6); 73.7 °C in data set [3] (replicate 2 (Lysozyme_2), 10 µg, carbonate–bicarbonate buffer pH 9.6).
For the substance NGVEGFNCYFP, the “serological reactivity vs other S1 and S2 regions” value in the data set with antibodies in sera is “less serologically reactive than other S1 and S2 regions”.
As for YFPLQSYGFQPTNGV [S3WT], the “IgG positive samples (reactivity index > 1.1)” value in data set [2] (setting [4]) is reported as “only two positive samples”; in data set [2] (setting [5]), “one for heterologous booster doses”.

(Values after article PMC11055068, “Humoral Immune Response to SARS-CoV-2 Spike Protein Receptor-Binding Motif Linear Epitopes” (Vaccines, 2024).)
